Reference: ChEMBL document CHEMBL1140860, “Synthesis and evaluation of dihydroartemisinin and dihydroartemisitene acetal dimers showing anticancer and antiprotozoal activity” (Bioorg Med Chem, 2009)

Experiments:
CCRF-CEM = test: Growth inhibition of human CCRF-CEM cells after 48 hrs by sulforhodamine B assay; type: functional
HL-60 = test: Growth inhibition of human HL-60(TB) cells after 48 hrs by sulforhodamine B assay; type: functional; conditions: HL-60, 48 h
K562 = test: Growth inhibition of human K562 cells after 48 hrs by sulforhodamine B assay; type: functional; conditions: K562, 48 h
[1] = Growth inhibition of human […] cells after 48 hrs by sulforhodamine B assay; type: functional
SR = test: Growth inhibition of human SR cells after 48 hrs by sulforhodamine B assay; type: functional
A549 = test: Growth inhibition of human A549 cells after 48 hrs by sulforhodamine B assay; type: functional; conditions: A549, 48 h
HCC 2998 = test: Growth inhibition of human HCC2998 cells after 48 hrs by sulforhodamine B assay; type: functional; conditions: HCC 2998, 48 h
HCT-116 = test: Growth inhibition of human HCT116 cells after 48 hrs by sulforhodamine B assay; type: functional; conditions: HCT-116, 48 h
HCT-15 = test: Growth inhibition of human HCT15 cells after 48 hrs by sulforhodamine B assay; type: functional; conditions: HCT-15, 48 h
HT-29 = test: Growth inhibition of human HT-29 cells after 48 hrs by sulforhodamine B assay; type: functional; conditions: HT-29, 48 h
KM12 = test: Growth inhibition of human KM12 cells after 48 hrs by sulforhodamine B assay; type: functional; conditions: KM12, 48 h
SW-620 = test: Growth inhibition of human SW620 cells after 48 hrs by sulforhodamine B assay; type: functional; conditions: SW-620, 48 h
SF-268 = test: Growth inhibition of human SF268 cells after 48 hrs by sulforhodamine B assay; type: functional; conditions: SF-268, 48 h
SF-295 = test: Growth inhibition of human SF295 cells after 48 hrs by sulforhodamine B assay; type: functional; conditions: SF-295, 48 h
SF-539 = test: Growth inhibition of human SF539 cells after 48 hrs by sulforhodamine B assay; type: functional; conditions: SF-539, 48 h
SNB-19 = test: Growth inhibition of human SNB19 cells after 48 hrs by sulforhodamine B assay; type: functional; conditions: SNB-19, 48 h
LOX IMVI = test: Growth inhibition of human LOXIMVI cells after 48 hrs by sulforhodamine B assay; type: functional
M14 = test: Growth inhibition of human M14 cells after 48 hrs by sulforhodamine B assay; type: functional; conditions: M14, 48 h
SK-MEL-2 = test: Growth inhibition of human SK-MEL-2 cells after 48 hrs by sulforhodamine B assay; type: functional; conditions: SK-MEL-2, 48 h
SK-MEL-28 = test: Growth inhibition of human SK-MEL-28 cells after 48 hrs by sulforhodamine B assay; type: functional; conditions: SK-MEL-28, 48 h
SK-MEL-5 = test: Growth inhibition of human SK-MEL-5 cells after 48 hrs by sulforhodamine B assay; type: functional; conditions: SK-MEL-5, 48 h
UACC-257 = test: Growth inhibition of human UACC257 cells after 48 hrs by sulforhodamine B assay; type: functional; conditions: UACC-257, 48 h
UACC-62 = test: Growth inhibition of human UACC62 cells after 48 hrs by sulforhodamine B assay; type: functional; conditions: UACC-62, 48 h
IGROV-1 = test: Growth inhibition of human IGROV1 cells after 48 hrs by sulforhodamine B assay; type: functional; conditions: IGROV-1, 48 h
OVCAR-3 = test: Growth inhibition of human OVCAR-3 cells after 48 hrs by sulforhodamine B assay; type: functional; conditions: OVCAR-3, 48 h
OVCAR-5 = test: Growth inhibition of human OVCAR5 cells after 48 hrs by sulforhodamine B assay; type: functional; conditions: OVCAR-5, 48 h
OVCAR-8 = test: Growth inhibition of human OVCAR8 cells after 48 hrs by sulforhodamine B assay; type: functional; conditions: OVCAR-8, 48 h
SK-OV-3 = test: Growth inhibition of human SKOV3 cells after 48 hrs by sulforhodamine B assay; type: functional; conditions: SK-OV-3, 48 h
A498 = test: Growth inhibition of human A498 cells after 48 hrs by sulforhodamine B assay; type: functional; conditions: A498, 48 h
CAKI-1 = test: Growth inhibition of human Caki1 cells after 48 hrs by sulforhodamine B assay; type: functional; conditions: CAKI-1, 48 h
RXF 393 = test: Growth inhibition of human RXF393 cells after 48 hrs by sulforhodamine B assay; type: functional; conditions: RXF 393, 48 h
SN12C = test: Growth inhibition of human SN12C cells after 48 hrs by sulforhodamine B assay; type: functional
TK-10 = test: Growth inhibition of human TK10 cells after 48 hrs by sulforhodamine B assay; type: functional; conditions: TK-10, 48 h
PC-3 = test: Growth inhibition of human PC3 cells after 48 hrs by sulforhodamine B assay; type: functional; conditions: PC-3, 48 h
DU-145 = test: Growth inhibition of human DU145 cells after 48 hrs by sulforhodamine B assay; type: functional; conditions: DU-145, 48 h
MCF7 = test: Growth inhibition of human MCF7 cells after 48 hrs by sulforhodamine B assay; type: functional; conditions: MCF7, 48 h
NCI/ADR-RES = test: Growth inhibition of human NCI/ADR-RES cells after 48 hrs by sulforhodamine B assay; type: functional
MDA-MB-231 = test: Growth inhibition of human MDA-MB-231 cells after 48 hrs by sulforhodamine B assay; type: functional; conditions: MDA-MB-231, 48 h
[2] = Growth inhibition of human Hs 578T cells after 48 hrs by sulforhodamine B assay; type: functional
MDA-MB-435 = test: Growth inhibition of human MDA-MB-435 cells after 48 hrs by sulforhodamine B assay; type: functional; conditions: MDA-MB-435, 48 h
MDA-N = test: Growth inhibition of human MDA-N cells after 48 hrs by sulforhodamine B assay; type: functional
Plasmodium falciparum = test: Antimalarial activity after 72 hrs against chloroquine-sensitive Plasmodium falciparum D6 infected in erythrocytes by LDH assay; type: functional, organism-based; conditions: D6, 72 h
[3] = Selectivity index, ratio of TC50 for african green monkey (Cercopithecus aethiops) Vero cells to IC50 for chloroquine-resistant Plasmodium falciparum W2; type: toxicity, cell-based
EKVX = test: Growth inhibition of human EKVX cells after 48 hrs by sulforhodamine B assay; type: functional
HOP-92 = test: Growth inhibition of human HOP92 cells after 48 hrs by sulforhodamine B assay; type: functional; conditions: HOP-92, 48 h
NCI-H226 = test: Growth inhibition of human NCI-H226 cells after 48 hrs by sulforhodamine B assay; type: functional; conditions: NCI-H226, 48 h
NCI-H23 = test: Growth inhibition of human NCI-H23 cells after 48 hrs by sulforhodamine B assay; type: functional; conditions: NCI-H23, 48 h
NCI-H322M = test: Growth inhibition of human NCI-H322M cells after 48 hrs by sulforhodamine B assay; type: functional
NCI-H522 = test: Growth inhibition of human NCI-H522 cells after 48 hrs by sulforhodamine B assay; type: functional; conditions: NCI-H522, 48 h
COLO 205 = test: Growth inhibition of human COLO205 cells after 48 hrs by sulforhodamine B assay; type: functional; conditions: COLO 205, 48 h

In the case of `C[C@H]1[C@@H](O[C@H]2CC[C@@H](O[C@H]3O[C@@H]4O[C@@]5(C)CC[C@H]6[C@H](C)CC[C@@H]([C@H]3C)[C@@]46OO5)CC2)O[C@@H]2O[C@@]3(C)CC[C@H]4[C@H](C)CC[C@@H]1[C@@]24OO3`, the GI50 (CCRF-CEM) is reported as < 5 nM, the GI50 (HL-60) is reported as 17 nM and the GI50 (K562) is reported as 14 nM. The GI50 [1] was < 5 nM, the GI50 (SR) was 14 nM and the GI50 (A549) was 20 nM. The GI50 (HCC 2998) was 18 nM, the GI50 (HCT-116) was 16 nM and the GI50 (HCT-15) was 14 nM. For the same compound, the GI50 (HT-29) was 26 nM, the GI50 (KM12) was 12 nM and the GI50 (SW-620) was 12 nM. It also gave a GI50 (SF-268) of 34 nM, a GI50 (SF-295) of 28 nM and a GI50 (SF-539) of 20 nM. It also gave a GI50 (SNB-19) of 99 nM, a GI50 (LOX IMVI) of 17 nM and a GI50 (M14) of 27 nM. For the same compound, the GI50 (SK-MEL-2) was 24 nM, the GI50 (SK-MEL-28) was 85 nM and the GI50 (SK-MEL-5) was 17 nM. It also gave a GI50 (UACC-257) of 27 nM, a GI50 (UACC-62) of 22 nM and a GI50 (IGROV-1) of 6750 nM. It also gave a GI50 (OVCAR-3) of 15 nM, a GI50 (OVCAR-5) of 152 nM and a GI50 (OVCAR-8) of 19 nM. The GI50 (SK-OV-3) was 34 nM, the GI50 (A498) was 40 nM and the GI50 (CAKI-1) was 37 nM. The GI50 (RXF 393) was 18 nM, the GI50 (SN12C) was 25 nM and the GI50 (TK-10) was 29 nM. For the same compound, the GI50 (PC-3) was 11 nM, the GI50 (DU-145) was 28 nM and the GI50 (MCF7) was 16 nM. The GI50 (NCI/ADR-RES) was 77 nM, the GI50 (MDA-MB-231) was 92 nM and the GI50 [2] was 49 nM. The GI50 (MDA-MB-435) was 28 nM, the GI50 (MDA-N) was 24 nM and the IC50 (Plasmodium falciparum) was 4600 nM. The selectivity ratio [3] was > 915, the GI50 (EKVX) was 24 nM and the GI50 (HOP-92) was 17 nM. It also gave a GI50 (NCI-H226) of 347 nM, a GI50 (NCI-H23) of 22 nM and a GI50 (NCI-H322M) of 16600 nM. It also gave a GI50 (NCI-H522) of 21 nM and a GI50 (COLO 205) of 7 nM.

In the case of `C[C@H]1[C@@H](O[C@H]2CC[C@H](O[C@H]3O[C@@H]4O[C@@]5(C)CC[C@H]6[C@H](C)CC[C@@H]([C@H]3C)[C@@]46OO5)CC2)O[C@@H]2O[C@@]3(C)CC[C@H]4[C@H](C)CC[C@@H]1[C@@]24OO3`, the GI50 (CCRF-CEM) is reported as < 10 nM, the GI50 (HL-60) is reported as 32 nM and the GI50 (K562) is reported as 41 nM. For the same compound, the GI50 [1] was < 10 nM, the GI50 (SR) was 306 nM and the GI50 (A549) was 18.8 nM. The GI50 (HCC 2998) was 18 nM, the GI50 (HCT-116) was < 10 nM and the GI50 (HCT-15) was < 10 nM. The GI50 (HT-29) was 11 nM, the GI50 (KM12) was 11 nM and the GI50 (SW-620) was 24 nM. It also gave a GI50 (SF-268) of 108 nM, a GI50 (SF-295) of 61 nM and a GI50 (SF-539) of 92 nM. For the same compound, the GI50 (SNB-19) was 372 nM, the GI50 (LOX IMVI) was 13 nM and the GI50 (M14) was 61 nM. The GI50 (SK-MEL-2) was 296 nM, the GI50 (SK-MEL-28) was 98800 nM and the GI50 (SK-MEL-5) was 49 nM. For the same compound, the GI50 (UACC-257) was 74 nM, the GI50 (UACC-62) was 45 nM and the GI50 (IGROV-1) was 55 nM. For the same compound, the GI50 (OVCAR-3) was 67 nM, the GI50 (OVCAR-5) was 42 nM and the GI50 (OVCAR-8) was 57 nM. The GI50 (SK-OV-3) was 166 nM, the GI50 (A498) was 376 nM and the GI50 (CAKI-1) was 326 nM. The GI50 (RXF 393) was 294 nM, the GI50 (SN12C) was 97 nM and the GI50 (TK-10) was 119 nM. For the same compound, the GI50 (PC-3) was < 10 nM, the GI50 (DU-145) was 340 nM and the GI50 (MCF7) was 42 nM. The GI50 (NCI/ADR-RES) was 130 nM, the GI50 (MDA-MB-231) was 520 nM and the GI50 [2] was 63 nM. The GI50 (MDA-MB-435) was 70 nM, the GI50 (MDA-N) was 77 nM and the IC50 (Plasmodium falciparum) was 5400 nM. For the same compound, the selectivity ratio [3] was > 553, the GI50 (EKVX) was 28 nM and the GI50 (HOP-92) was 21 nM. For the same compound, the GI50 (NCI-H226) was 25 nM, the GI50 (NCI-H23) was 43 nM and the GI50 (NCI-H322M) was 672 nM. For the same compound, the GI50 (NCI-H522) was 36 nM and the GI50 (COLO 205) was < 10 nM.
